Reference: patent publication US20070281330A1, “Method for Examining the Activity of Ion Channels” (priority 2004, published 2007)
Where “and” joins values, the source holds several entries; their conditions need not be identical. Identical values can stand only once.

What was measured:
Kv1.3 = target: T1, Kv1.3 (Homo sapiens, UniProt P22001); experiment: FMP membrane potential assay on Kv1.3, suspension cells; type: cell-based; conditions: 100 nM Margatoxin, FMP dye
T1 construct: expressed in transfected cells
T1 sequence (P22001 whole entry): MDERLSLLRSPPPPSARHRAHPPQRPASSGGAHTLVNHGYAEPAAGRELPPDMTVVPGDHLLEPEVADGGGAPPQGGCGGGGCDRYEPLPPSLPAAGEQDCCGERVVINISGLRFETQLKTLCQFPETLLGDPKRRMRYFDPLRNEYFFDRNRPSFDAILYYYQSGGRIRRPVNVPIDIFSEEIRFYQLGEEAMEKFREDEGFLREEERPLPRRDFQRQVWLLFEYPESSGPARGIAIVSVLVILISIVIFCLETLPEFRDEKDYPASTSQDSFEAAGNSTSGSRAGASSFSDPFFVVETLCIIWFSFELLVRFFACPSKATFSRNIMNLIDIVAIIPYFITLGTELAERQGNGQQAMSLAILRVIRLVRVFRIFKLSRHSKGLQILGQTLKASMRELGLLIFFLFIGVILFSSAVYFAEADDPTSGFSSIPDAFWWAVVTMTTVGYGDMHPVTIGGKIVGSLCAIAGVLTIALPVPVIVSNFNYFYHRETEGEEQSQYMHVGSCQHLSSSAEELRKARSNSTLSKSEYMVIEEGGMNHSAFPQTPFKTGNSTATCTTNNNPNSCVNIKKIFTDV

sodium channel SCN5a = sodium channel SCN5a (Homo sapiens, UniProt Q14524); type: cell-based
Chain of sodium channel SCN5a (Q14524 whole entry, looked up): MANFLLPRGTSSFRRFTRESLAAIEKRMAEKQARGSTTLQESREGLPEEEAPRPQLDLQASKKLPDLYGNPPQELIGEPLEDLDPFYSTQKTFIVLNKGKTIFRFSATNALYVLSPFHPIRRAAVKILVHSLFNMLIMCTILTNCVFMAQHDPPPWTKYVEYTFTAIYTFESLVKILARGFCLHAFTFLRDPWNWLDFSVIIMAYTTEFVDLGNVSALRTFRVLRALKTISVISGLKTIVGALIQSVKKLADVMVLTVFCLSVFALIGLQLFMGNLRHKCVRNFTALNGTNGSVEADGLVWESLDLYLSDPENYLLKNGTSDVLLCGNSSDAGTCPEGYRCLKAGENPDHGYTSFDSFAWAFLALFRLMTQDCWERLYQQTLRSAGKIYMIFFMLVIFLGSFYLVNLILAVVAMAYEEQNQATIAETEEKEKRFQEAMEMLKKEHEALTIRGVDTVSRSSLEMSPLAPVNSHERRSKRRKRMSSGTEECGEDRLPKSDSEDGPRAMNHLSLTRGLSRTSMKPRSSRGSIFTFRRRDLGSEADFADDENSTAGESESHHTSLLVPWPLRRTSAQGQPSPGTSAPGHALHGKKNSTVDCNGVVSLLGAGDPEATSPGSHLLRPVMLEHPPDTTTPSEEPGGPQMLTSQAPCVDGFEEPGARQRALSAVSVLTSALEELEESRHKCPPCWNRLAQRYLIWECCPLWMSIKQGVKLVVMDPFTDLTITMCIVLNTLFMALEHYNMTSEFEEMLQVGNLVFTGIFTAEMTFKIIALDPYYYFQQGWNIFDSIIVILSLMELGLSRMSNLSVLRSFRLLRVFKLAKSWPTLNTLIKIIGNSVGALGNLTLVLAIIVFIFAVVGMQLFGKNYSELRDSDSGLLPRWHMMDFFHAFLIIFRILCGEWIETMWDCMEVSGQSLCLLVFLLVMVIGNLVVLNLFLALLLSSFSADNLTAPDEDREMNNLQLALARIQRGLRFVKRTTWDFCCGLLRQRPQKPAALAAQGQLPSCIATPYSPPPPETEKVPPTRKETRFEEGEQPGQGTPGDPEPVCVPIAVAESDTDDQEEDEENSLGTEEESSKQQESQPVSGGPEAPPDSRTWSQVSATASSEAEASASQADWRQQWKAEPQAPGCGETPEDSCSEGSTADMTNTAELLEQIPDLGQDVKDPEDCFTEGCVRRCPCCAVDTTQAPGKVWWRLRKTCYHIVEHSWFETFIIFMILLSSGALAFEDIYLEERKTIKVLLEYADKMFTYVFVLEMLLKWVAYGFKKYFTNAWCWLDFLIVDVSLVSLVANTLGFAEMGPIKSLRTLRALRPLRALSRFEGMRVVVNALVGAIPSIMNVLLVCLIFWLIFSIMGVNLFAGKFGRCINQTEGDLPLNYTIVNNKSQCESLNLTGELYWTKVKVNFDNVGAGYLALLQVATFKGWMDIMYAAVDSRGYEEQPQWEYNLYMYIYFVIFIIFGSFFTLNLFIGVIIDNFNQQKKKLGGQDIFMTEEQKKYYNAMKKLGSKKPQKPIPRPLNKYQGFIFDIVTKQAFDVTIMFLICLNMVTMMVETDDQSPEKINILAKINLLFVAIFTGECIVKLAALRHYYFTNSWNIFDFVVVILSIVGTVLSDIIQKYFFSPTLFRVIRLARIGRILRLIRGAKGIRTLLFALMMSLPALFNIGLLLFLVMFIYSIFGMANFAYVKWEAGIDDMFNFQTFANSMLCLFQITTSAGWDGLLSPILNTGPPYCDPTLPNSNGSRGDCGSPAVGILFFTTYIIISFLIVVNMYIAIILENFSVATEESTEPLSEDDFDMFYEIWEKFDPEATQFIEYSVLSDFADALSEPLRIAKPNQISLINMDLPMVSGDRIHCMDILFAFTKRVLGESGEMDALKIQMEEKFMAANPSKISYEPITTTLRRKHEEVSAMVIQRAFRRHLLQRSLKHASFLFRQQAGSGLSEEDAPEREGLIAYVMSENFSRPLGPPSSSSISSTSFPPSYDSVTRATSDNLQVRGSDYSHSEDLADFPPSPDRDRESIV

[1] = 110 min 1° C. (after 10 min room temperature)

Margatoxin
Increase [%] (Kv1.3; 10 min room temperature): 3% and 2.93%
[rfu] (Kv1.3; 10 min room temperature): 22479.50 rfu
Increase [%] (Kv1.3; [1]): 68% and 68.04%
[rfu] (Kv1.3; [1]): 47474.00 rfu

NC1=N[C@H](O)[C@H]2[C@H]3O[C@]4(O)O[C@@H]([C@@H](O)[C@@]2(N1)[C@@H]4O)[C@]3(O)CO [TTX, tetrodotoxin]
18° C. [RFUs] (sodium channel SCN5a): 4636.0 RFUs and 5379.0 RFUs and 2882.0 RFUs and 3816.0 RFUs and 4067.0 RFUs and 4401.0 RFUs and 5620.0 RFUs and 5034.0 RFUs
